Holding throughout (type): cell-based, mouse
In test [1] the test system is NIH3T3 cells overexpressing Ki-ras. The test can be described thus: MTT cell viability, Ki-ras overexpressing cells vs parental line. The conditions noted are these: Ki-ras high-expressing cells / parental cell line, 3 to 4 days. The method, then:
(§1) With regard to the function-known genes, the genes shown in the left column of Table 2 were used. With regard to the drugs, those shown in Table 1 were dissolved in DMSO to an extent of 100-fold of the maximum concentration for the search of the drugs and used. With regard to the cells, incubated NIH3T3 or ras-NIH3T3 cells were used.
(§2) Full-length cDNA of each function-known genes was incorporated into an expression vector (pRc-CMV, etc.) and transfected into NIH3T3 cells by a common method. Transformed cells were isolated using the resistance to G-418 as an index and the expression of the transfected gene in each cell was investigated by Western blotting method to select a highly expressing line.
(§3) Cell viabilities were measured according to the following procedures.
(§4) 1) From the 2nd to the 11th rows of a 96-well plate were filled with DMEM (50 μl). The 12th row was filled with 100 μl of DMEM.
(§5) 2) The 1st row was filled with 98 μl of DMEM.
(§6) 3) Drugs (2 μl each) were added into the 1st row.
(§7) 4) Continuous double-dilution was conducted from the 1st to the 9th rows. Fifty μl were taken out from the 9th row and discarded. The plate was preserved in a CO2 incubator.
(§8) 5) Cells (each high-expressing cells and the parental cell line) were detached from the medium using a trypsin solution, suspended in 10% CS-DMEM and transferred to a test tube and cell numbers (cell/ml) were counted.
(§9) 6) The cells were diluted to a concentration of 1×10^5 cells/ml, and 50 μl of the cell suspension were added to the 1st to the 11th rows of the plate followed by gently stirring.
(§10) 7) The plate was transferred to the CO2 incubator and incubated for 3 to 4 days.
(§11) 8) MTT (5 mg/ml in PBS) (10 μl) was added to the 1st to the 12th rows of the plate and incubated in the CO2 incubator at 37° C. for 4 hours.
(§12) 9) A reaction stop solution (0.04N HCl in isopropanol) (150 μl) was added followed by mixing well and being allowed to stand at room temperature for about 2 hours.
(§13) 10) Coloration of formazan which was a metabolite of the MTT dye was measured using a microplate reader. The measurement wavelength was 574 nm and the reference wavelength was 655 nm. The 10th and the 11th rows of the plate were 100% controls and the 12th row was a 0% control.
(§14) As an index for the sensitivity of highly gene-expressing cells and the parental cell line to various drugs, each of the IC40 values thereof was specified and ratios of the IC40 values were calculated. FIG. 2 and FIG. 3 are the examples where ratios of IC40 values were calculated from a curve showing the dependency on the concentration of the chemical versus the viability. After that, logarithmic values of ratios of IC40 values were calculated from each gene.

For test [2], the system named is NIH3T3 cells overexpressing N-ras. The test can be described thus: MTT cell viability, N-ras overexpressing cells vs parental line. Particulars: N-ras high-expressing cells / parental cell line, 3 to 4 days. The method, then: as §1, §2, §3, §4, §5, §6, §7, §8, §9, §10, §11, §12, §13, §14
For test [3], the system named is NIH3T3 cells overexpressing Bax. The test can be described thus: MTT cell viability, Bax overexpressing cells vs parental line. The conditions noted are these: 3 to 4 days. The method, then:
as §1, §2, §3, §4, §5, §6, §7, §8, §9, §10, §11, §12, §13
(§15) As an index for the sensitivity of highly gene-expressing cells and the parental cell line to various drugs, each of the IC40 values thereof was specified and ratios of the IC40 values were calculated. […] After that, logarithmic values of ratios of IC40 values were calculated from each gene.

Test [4] relates to NIH3T3 cells overexpressing TK. The test can be described thus: MTT cell viability, TK overexpressing cells vs parental line. Particulars: TK high-expressing cells / parental cell line, 3 to 4 days. The method, then:
as §1, §2, §3, §4, §5, §6, §7, §8, §9, §10, §11, §12, §13, §14

Test [5] deals with NIH3T3 cells overexpressing calpastatin. The test can be described thus: MTT cell viability, calpastatin overexpressing cells vs parental line. The conditions noted are these: calpastatin high-expressing cells / parental cell line, 3 to 4 days. The method, then:
as §1, §2, §3, §4, §5, §6, §7, §8, §9, §10, §11, §12, §13, §14

Test [6] relates to NIH3T3 cells overexpressing cystatin alpha. The test can be described thus: MTT cell viability, cystatin alpha overexpressing cells vs parental line. Particulars: cystatin alpha high-expressing cells / parental cell line, 3 to 4 days. The method, then: as §1, §2, §3, §4, §5, §6, §7, §8, §9, §10, §11, §12, §13, §14
Test [7] concerns NIH3T3 cells overexpressing cystatin E. The test can be described thus: MTT cell viability, cystatin E overexpressing cells vs parental line. The conditions noted are these: cystatin E high-expressing cells / parental cell line, 3 to 4 days. The method, then: as §1, §2, §3, §4, §5, §6, §7, §8, §9, §10, §11, §12, §13, §14
The subject of test [8] is NIH3T3 cells overexpressing caspase-1. The test can be described thus: MTT cell viability, caspase-1 overexpressing cells vs parental line. Particulars: caspase-1 high-expressing cells / parental cell line, 3 to 4 days. The method, then: as §1, §2, §3, §4, §5, §6, §7, §8, §9, §10, §11, §12, §13, §15
Test [9] has as its system NIH3T3 cells overexpressing caspase-2. The test can be described thus: MTT cell viability, caspase-2 overexpressing cells vs parental line. The conditions noted are these: caspase-2 high-expressing cells / parental cell line, 3 to 4 days. The method, then:
as §1, §2, §3, §4, §5, §6, §7, §8, §9, §10, §11, §12, §13, §14

Test [10] relates to NIH3T3 cells overexpressing PDGF-R-Del. The test can be described thus: MTT cell viability, PDGF-R-Del overexpressing cells vs parental line. The conditions noted are these: PDGF-R-Del high-expressing cells / parental cell line, 3 to 4 days. The method, then: as §1, §2, §3, §4, §5, §6, §7, §8, §9, §10, §11, §12, §13, §14
Test [11] has as its system NIH3T3 cells overexpressing CBP8. The test can be described thus: MTT cell viability, CBP8 overexpressing cells vs parental line. Particulars: CBP8 high-expressing cells / parental cell line, 3 to 4 days. The method, then:
as §1, §2, §3, §4, §5, §6, §7, §8, §9, §10, §11, §12, §13, §14

Test [12] has as its system NIH3T3 cells overexpressing p38-DN. The test can be described thus: MTT cell viability, p38-DN overexpressing cells vs parental line. Particulars: p38-DN high-expressing cells / parental cell line, 3 to 4 days. The method, then: as §1, §2, §3, §4, §5, §6, §7, §8, §9, §10, §11, §12, §13, §15
Test [13] concerns NIH3T3 cells overexpressing HNF4. The test can be described thus: MTT cell viability, HNF4 overexpressing cells vs parental line. Particulars: HNF4 high-expressing cells / parental cell line, 3 to 4 days. The method, then: as §1, §2, §3, §4, §5, §6, §7, §8, §9, §10, §11, §12, §13, §15
For test [14], the system named is NIH3T3 cells overexpressing coup. The test can be described thus: MTT cell viability, coup overexpressing cells vs parental line. The conditions noted are these: coup high-expressing cells / parental cell line, 3 to 4 days. The method, then: as §1, §2, §3, §4, §5, §6, §7, §8, §9, §10, §11, §12, §13, §14
Test [15] has as its system NIH3T3 cells overexpressing p33/ING1. The test can be described thus: MTT cell viability, p33/ING1 overexpressing cells vs parental line. The conditions noted are these: p33/ING1 high-expressing cells / parental cell line, 3 to 4 days. The method, then: as §1, §2, §3, §4, §5, §6, §7, §8, §9, §10, §11, §12, §13, §14
Test [16] concerns NIH3T3 cells overexpressing STAT1. The test can be described thus: MTT cell viability, STAT1 overexpressing cells vs parental line. The conditions noted are these: STAT1 high-expressing cells / parental cell line, 3 to 4 days. The method, then:
as §1, §2, §3, §4, §5, §6, §7, §8, §9, §10, §11, §12, §13, §15

In test [17] the test system is NIH3T3 cells overexpressing PKCepsilon-KN. The test can be described thus: MTT cell viability, PKCepsilon-KN overexpressing cells vs parental line. Particulars: 3 to 4 days. The method, then:
as §1, §2, §3, §4, §5, §6, §7, §8, §9, §10, §11, §12, §13, §15

For test [18], the system named is NIH3T3 cells overexpressing HNF1. The test can be described thus: MTT cell viability, HNF1 overexpressing cells vs parental line. The conditions noted are these: HNF1 high-expressing cells / parental cell line, 3 to 4 days. The method, then: as §1, §2, §3, §4, §5, §6, §7, §8, §9, §10, §11, §12, §13, §15
Test [19] concerns NIH3T3 cells overexpressing HNF3b. The test can be described thus: MTT cell viability, HNF3b overexpressing cells vs parental line. The conditions noted are these: HNF3b high-expressing cells / parental cell line, 3 to 4 days. The method, then:
as §1, §2, §3, §4, §5, §6, §7, §8, §9, §10, §11, §12, §13, §15

[20] abbreviates: Bax (first of two Bax lines) high-expressing cells / parental cell line.
[21] abbreviates: PKCepsilon-KN (first of two lines) high-expressing cells / parental cell line.

Structures are written as SMILES.

For `CN[C@@H]1C[C@H]2O[C@@](C)([C@@H]1OC)n1c3ccccc3c3c4c(c5c6ccccc6n2c5c31)C(=O)NC4` [Staurosporine], the “logarithmic value of ratio of IC40 values” in [1] is listed as 0.38; in test [2], 0.24; in test [3] (setting [20]), −0.22; in test [4], 0.46; in test [5] it was 0.04; in test [6], 0.30. Also, the “logarithmic value of ratio of IC40 values” in [7] is given as 0.40; in test [8], 0.22; in [9], 0.18; in [10], 0.28; in [11], 0.19; in test [12] it was −0.05. The “logarithmic value of ratio of IC40 values” in test [13] is reported as 0.04; in test [14] it was 0.08; in test [15], 0.62.
As for `CN(C)CCCn1cc(C2=C(c3c[nH]c4ccccc34)C(=O)NC2=O)c2ccccc21` [GF109203X], the “logarithmic value of ratio of IC40 values” in test [1] was −0.40; in [3] (setting [20]), 0.22; in [3] (Bax (second of two Bax lines) high-expressing cells / parental cell line), 0.27; in test [4], 0.00; in test [6] it was 0.60; in test [7], 0.27. Moreover, the “logarithmic value of ratio of IC40 values” in test [8] was 0.23; in test [9], 0.92; in [10], 0.91; in [16], 0.41; in test [11] it was 0.16; in [17] (setting [21]), −0.17. Further, the “logarithmic value of ratio of IC40 values” in test [17] (PKCepsilon-KN (second of two lines) high-expressing cells / parental cell line) is recorded as 0.32; in [12], 0.58; in [18], 0.345; in test [19], 0.21; in test [13] it was 0.40; in test [14] it was 0.46. In addition, in test [15], the “logarithmic value of ratio of IC40 values” is on record as −0.28.
On to `CC(C)(C)C(=O)Oc1ccc(S(=O)(=O)Nc2ccccc2C(=O)NCC(=O)O)cc1` [compound 5046], for which the “logarithmic value of ratio of IC40 values” in test [1] is 0.51; in [2] it was 0.23; in [3] (setting [20]), −0.07; in test [4], −0.24; in test [5] it was −0.1; in test [7], 0.36. Also, the “logarithmic value of ratio of IC40 values” is 0.40 in test [8]; 0.51 in test [9]; −0.07 in test [10]; 0.05 in test [16]; 0.12 in test [11]; −0.21 in test [17] (setting [21]). The “logarithmic value of ratio of IC40 values” is −0.04 in test [12]; 0.05 in test [18]; −0.25 in test [19]; −0.04 in test [14]; −0.25 in test [15].
